Assay results reported in article PMC11353420, “Anti-Inflammatory, Cytotoxic, and Genotoxic Effects of Soybean Oligopeptides Conjugated with Mannose” (Foods, 2024).
Where “and” joins values, the source holds several entries; their conditions need not be identical. Equal entries are not always repeated.

How the values were obtained:
[1] = tested on: Salmonella typhimurium strain TA100; assay: Salmonella mutation assay (Ames test), TA100; format: cell-based; settings: positive mutagen
Description: (§1) Overnight bacterial cultures were mixed with various doses of test compounds with (+S9) or without (−S9) and incubated at 37 °C for 20 min. The top agar was added and then poured onto a plate of minimal glucose agar. The plates were incubated at 37 °C for 48 h. The number of revertant colonies was counted and the mutagenic index (MI) was calculated. 2-aminoanthracene (2-AA) and 2-(2-furyl)-3-(5-nitro-2-furyl)-acrylamide (AF-2) were used as positive mutagens in the presence and absence of S9.

[2] = tested on: Salmonella typhimurium strain TA98; assay: Salmonella mutation assay (Ames test), TA98; format: cell-based; settings: positive mutagen
Description: as §1

[3] = tested on: human red blood cells (RBCs); assay: Hemolysis assay; format: cell-based; settings: 0.05%, positive control
Source text: As described by Karinchai et al., human peripheral blood mononuclear cells (PBMCs) and red blood cells (RBCs) were isolated from human blood samples [41]. Human blood samples of healthy subjects obtained from Maharaj Hospital, Chiang Mai, Thailand, were anonymized and kept in a heparinized tube by the laboratory. RBCs were collected and used to determined hemolysis induction by a hemolysis assay. Ficoll-Hypaque solution was used to isolate PBMCs, as described in the manufacturer’s instructions. A certificate of exemption by the Research Ethics Committee of the Faculty of Medicine, Chiang Mai University (No. EXEMPTION 8989/2022), was granted. Consent to participate was not applicable as all data were anonymized. All methods were carried out in accordance with relevant guidelines and regulations.
The hemolytic effect of the oligopeptide and its conjugated forms was determined by hemolysis assay. Briefly, the 5% RBCs suspension was mixed with various concentrations of the samples and further incubated at 37 °C for 3 h. The hemolysis induction by the compounds was measured as described previously. The hemolytic effect of each compound was interpreted using the following guidelines: 0–10% hemolysis is non-hemolysis, 10–25% hemolysis is slight hemolysis induction, and >25% hemolysis is high hemolysis induction.

[4] = tested on: 3T3-L1 Mature-adipocytes; assay: SRB cytotoxicity assay, 3T3-L1 mature adipocytes; format: cell-based, murine
Description: The pre-adipocyte 3T3-L1 cell line was differentiated to become mature adipocytes by culturing the cells to 100% confluence in 10% calf serum DMEM (CS medium), as Day 0 in a 96 well-plate. After post-confluence, the cells were incubated with the induction medium as a differentiation initiation medium (DMEM […] 1 μM DEX, 0.5 mM IBMX, 167 nM insulin, and 10% FBS) for 3 days (Days 1–3). After that, cells were cultured in a differentiation medium as an adipogenic differentiation medium (differentiation media: DMEM containing 167 nM insulin and 10% FBS) for 3 days (Days 4–6). Finally, maturation was induced in an induced-lipid accumulation medium (maturation media: DMEM containing 167 nM insulin and 10% FBS) for 6 days (Days 7–12). The mature adipocytes were then used for toxicity testing.
(§2) The cytotoxicity of the oligopeptide and its conjugated forms on HepG2, HEK293, LX-2, and RAW 264.7 cells, pre- and mature 3T3-L1 adipocytes, and hPBMCs was analyzed by a sulforhodamine (SRB) assay to obtain their non-toxic concentration for further experiments and as screening data for their in vitro safety. The cells were plated for 12 h in 96-well plates and then treated with the oligopeptide and its conjugated sugar at a concentration of 0–1000 µg/mL for 48 h. Dimethyl sulfoxide (DMSO) was used as a vehicle control (the untreated control). At the indicated time, the cells were then fixed and subjected to an SRB assay. The absorbance was measured at 510 nm by spectrophotometry (Gen5, BioTek, Winooski, VT, USA), and the cell viability was calculated as the ratio of the treatment versus untreated control. The data are represented as the mean ± standard deviation of three replicates and are expressed relative to the untreated control. The percentage of cell survival was calculated as follows:% cell survival = (Abs_extract/Abs_control) × 100

[5] = tested on: IL-6; assay: IL-6 secretion by ELISA in LPS-treated RAW 264.7; format: cell-based, murine; settings: 100, 200, 400 µg/mL, LPS 1 µg/mL 24 h
Description: (§3) RAW 264.7 macrophage cells were pretreated with various concentrations of the oligopeptide and its conjugated forms (100, 200, 400 µg/mL) for an hour and then incubated with LPS (1 µg/mL) for further 24 h at 37 °C in a 5% CO2 humidified atmosphere. Then, a sandwich Enzyme Link Immuno-Sorbent Assay was carried out in accordance with the manufacturer’s protocols (BioLegend ELISA MAXTM Deluxe Set, San Diego, CA, USA) to measure TNF-α or IL-6 protein levels in the condition medium.

[6] = tested on: iNOS; assay: iNOS protein level by immunoblotting in LPS-treated RAW 264.7; format: cell-based, murine; settings: 100, 200, 400 µg/mL, LPS 1 µg/mL 24 h
Description: (§4) RAW 264.7 macrophage cells were pretreated with various concentrations of the oligopeptide and its conjugated forms (100, 200, 400 µg/mL) for an hour and then incubated with LPS (1 µg/mL) for a further 24 h (at 37 °C in a 5% CO2 humidified atmosphere). The cells were then collected to investigate the iNOS and COX-2 protein levels. Cell lysate was prepared to obtain the protein samples. The samples were subjected to 10% sodium dodecyl sulfate polyacrylamide gel electrophoresis (SDS-PAGE). The separated proteins were electrically transferred to a nitrocellulose membrane. The target proteins were probed with specific antibodies, including anti-COX-2 antibody (Cell signaling, Danvers, MA, USA), anti-iNOS antibody (Merck, Rahway, NJ, USA), and anti-β-actin antibody (Sigma, St. Louis, MO, USA). Protein detection was performed using a chemiluminescence reagent (Bio-Rad Laboratories, Watford, UK).

[7] = tested on: HEK293 (Human embryonic kidney cell line); assay: SRB cytotoxicity assay, HEK293; format: cell-based
Source text: (§5) HEK293 (Human embryonic kidney cell line), HepG2 (Human liver carcinoma cell line), LX-2 (Human hepatic stellate cell line), and 3T3-L1 (Murine preadipocyte cell line) cells were obtained from the American Type Culture Collection (ATCC), Bethesda, MD, USA.

[8] = tested on: RAW 264.7 murine macrophage cell line; assay: SRB cytotoxicity assay, RAW 264.7
Description: The cells were maintained in a 5% CO2 humidified atmosphere (CO2 incubator, Thermo Scientific, Waltham, MA, USA) at 37 °C and sub-cultured every 3 days.
as §2

[9] = tested on: TNF-α; assay: TNF-α secretion by ELISA in LPS-treated RAW 264.7; format: cell-based, murine; settings: 400 µg/mL, LPS-stimulated cells
Description: as §3

[10] = tested on: NO production in LPS-treated RAW 264.7 macrophages; assay: LPS-induced nitric oxide (NO)/nitrite production, Griess reaction; format: cell-based, murine; settings: 100, 200, 400 µg/mL pretreatment 1 h, LPS 1 µg/mL 24 h
Description: To screen the anti-inflammation ability of the compounds, the nitrite level in the cultured medium of the treated cells was determined by the Griess reaction. RAW 264.7 macrophage cells were pretreated with various concentrations of the oligopeptide and its conjugated forms (100, 200, 400 µg/mL) for an hour and then incubated with LPS (1 µg/mL) for further 24 h at 37 °C in a 5% CO2 humidified atmosphere. The culture supernatant was collected for the Griess reagent assay as previous described. The NO production was calculated by comparison with LPS-treated controls.

[11] = tested on: COX-2; assay: COX-2 protein level by immunoblotting in LPS-treated RAW 264.7; format: cell-based, murine; settings: 100, 200, 400 µg/mL, LPS 1 µg/mL 24 h
Description: as §4

[12] = tested on: LX-2 (Human hepatic stellate cell line); assay: SRB cytotoxicity assay, LX-2; format: cell-based
Source text: as §5

[13] = tested on: HepG2 (Human liver carcinoma cell line); assay: SRB cytotoxicity assay, HepG2; format: cell-based
Source text: as §5

[14] = tested on: 3T3-L1 Pre-adipocyte; assay: SRB cytotoxicity assay, 3T3-L1 pre-adipocyte; format: cell-based, murine
Source text: as §5

[15] = tested on: Drosophila melanogaster; assay: Somatic mutation and recombination test (SMART, wing spot test); format: in vivo; design: key to Statistical diagnosis vs DI (negative control), Small Single (1–2 Cells) / Statistical diagnosis vs DI (negative control), Large Single (>2 Cells) / Statistical diagnosis vs DI (negative control), Twin / Statistical diagnosis vs DI (negative control), Total Spots: + = positive; − = negative; i = inconclusive; settings: 20 mM, positive control
Description: In brief, two strains of fruit flies, including mwh/mwh and ORR; flr^3/In(3LR) TM3, ri p^p sep l(3)89Aa bx^34e e Bd^S, were mated. […] After hatching, forty round wings were collected and analyzed for mutant spots (single, large, and twin spots). The statistical analysis for the wing spot test was performed as previously described. The Drosophila study was approved by the Institute of Nutrition—Mahidol University Institutional Animal Care and Use Committee (INMU-IACUC) (COA. No. INMU-IACUC 2023/01).

Compound: NC(=O)C(=Cc1ccc([N+](=O)[O-])o1)c1ccco1 [AF-2, 2-(2-furyl)-3-(5-nitro-2-furyl)-acrylamide]
- His^+ Revertant Colonies per Plate ([1]; TA100, −S9, 0.01 µg per plate): 527.3 ± 15.0
- His^+ Revertant Colonies per Plate ([2]; TA98, −S9, 0.1 µg per plate): 293.0 ± 10.3

Compound: triton x-100
- % Hemolysis (n = 5) [3]: 100 ± 0.00%

Compound: O=C(CO)[C@H](O)[C@H](O)[C@H](O)CO [AL, D-allulose]
- IC20 [4]: >1000 µg/mL
- IC50 ([4]; 3T3-L1 Mature-adipocytes, 48 h, SRB): >1000 µg/mL
- effect on level of IL-6 [5]: did not alter
- effect on iNOS protein level [6]: did not affect
- IC20 [7]: >1000 µg/mL
- IC50 ([7]; HEK293, 48 h, SRB): >1000 µg/mL
- IC20 [8]: >1000 µg/mL
- IC50 ([8]; RAW 264.7, 48 h, SRB): >1000 µg/mL
- effect on TNF-α level [9]: significantly decreased
- inhibition of LPS-induced NO production [10]: did not inhibit
- effect on COX-2 protein level [11]: did not affect
- IC20 [12]: >1000 µg/mL
- IC50 ([12]; LX-2, 48 h, SRB): >1000 µg/mL
- IC20 [13]: >1000 µg/mL
- IC50 ([13]; HepG2, 48 h, SRB): >1000 µg/mL
- IC20 [14]: >1000 µg/mL
- IC50 ([14]; 3T3-L1 Pre-adipocyte, 48 h, SRB): >1000 µg/mL

Compound: CCOC(N)=O [urethane]
- Statistical diagnosis vs DI (negative control), Large Single (>2 Cells) [15]: +
- Statistical diagnosis vs DI (negative control), Small Single (1–2 Cells) [15]: +
- Statistical diagnosis vs DI (negative control), Total Spots [15]: +
- Statistical diagnosis vs DI (negative control), Twin [15]: +
- total mutant spot, fold greater than the negative control [15]: 15 fold
- Frequency of Mutant Spots per Individual (Number of Spots), Large Single (>2 Cells) ([15]; 40 wings): 3.40 (136)
- Frequency of Mutant Spots per Individual (Number of Spots), Small Single (1–2 Cells) ([15]; 40 wings): 6.10 (244)
- Frequency of Mutant Spots per Individual (Number of Spots), Total Spots ([15]; 40 wings): 10.18 and 10.18 (407)
- Frequency of Mutant Spots per Individual (Number of Spots), Twin ([15]; 40 wings): 0.68 (27)

Compound: Nc1ccc2cc3ccccc3cc2c1 [2-AA, 2-aminoanthracene]
- His^+ Revertant Colonies per Plate ([1]; TA100, +S9, 0.5 µg per plate): 599.7 ± 8.7
- His^+ Revertant Colonies per Plate ([2]; TA98, +S9, 0.5 µg per plate): 325.8 ± 16.2
